Legend:
[1] = test system: Smooth crabgrass; test: Test 11 windowsill flats, postemergence; assay type: in vivo, Digitaria ischaemum; conditions: Postemergence 32 g/ha, 0.25% X-77 surfactant, scale 0-100
Description: (§1) Budded citrus seedlings were planted in 30-liter plastic pots which were also seeded with sandbur, guineagrass, narrowleaf panicum, common ragweed, yellow nutsedge, purple nutsedge and bindweed. Compound I was applied preemergence and postemergence to the weeds. Treatments were sprayed to simulate the trunk-to-trunk herbicide application method used in some citrus groves. The compound was also applied postemergence to weeds grown in windowsill flats. The flats were filled with planting medium and seeded with morningglory (Ipomoea spp.). purple nutsedge (Cyperus rotundus), pigweed (Amaranthus spp.), bindweed (Convolvulus spp.), narrowleaf panicum (Panicum maximum), common ragweed (Ambrosia artemisiifolia), sandbur (Cenchrus echinatus), itchgrass (Rottboellia exaltata), johnsongrass (Sorghum halepense), guineagrass (Panicum maximum), smooth crabgrass (Digitaria ischaemum), broadleaf signalgrass (Brachiaria platyphylla), bermudagrass (Cynodon dactylon), goosegrass (Eleusine indica), large crabgrass (Digitaria sanguinalis) and yellow nutsedge (Cyperus esculentus).
(§2) The compound was formulated and sprayed with 0.25% X-77 surfactant in water. Plants were visually rated 21 and 29 days after treatment and compared with appropriate controls. Injury ratings were based on the scale of 0 to 100, where 0 indicates no effect, 20 indicates minimum effect and 100 indicates complete control. […]

[2] = test system: Pigweed; test: Test 9 postemergence; assay type: in vivo, Amaranthus spp; conditions: 16 g/ha, scale 0-100
Description: Plastic windowsill pots containing planting medium were seeded with bahiagrass, bindweed (Convolvulus spp), guinea grass (Panicum maximum), large crabgrass (Digitaria sanguinalis) and pigweed (Amaranthus spp). Individual 15-cm plastic pots contained sandbur (Cenchrus echinatus), Mikania cordata, Boston fern (Nephrolepis exalata), quackgrass (Agropyron repens), elephantgrass (Pennisetum purpureum) and sowthistle (Sonchus spp) plants.
Plants were treated postemergence with Compound I formulated in a non-phytotoxic solvent. Plants were visually rated 22 days after treatment (DAT). Injury and weed control ratings were based on the scale of 0 to 100 where 0 = no effect, 20 = minimal control and 100 = complete control.

[3] = test system: Johnsongrass; test: Test 11 windowsill flats, postemergence; assay type: in vivo, Sorghum halepense; conditions: Postemergence 32 g/ha, 0.25% X-77 surfactant, scale 0-100
Description: as §1, §2

[4] = test system: Bindweed; test: Test 11 windowsill flats, postemergence; assay type: in vivo, Convolvulus spp.; conditions: Postemergence 32 g/ha, 0.25% X-77 surfactant, scale 0-100
Description: as §1, §2

[5] = test system: Matricaria; test: Test 7 postemergence; assay type: in vivo, Matricaria spp; conditions: scale 0-100
Description: (§3) Individual 11.4-cm plastic pots filled with planting medium were seeded with rape, wild radish (Raphanus raphanistruna). tansy mustard (Descurainia pinnata), ball mustard (Neslia paniculata), black mustard (Brassica nigra), yellow mustard, brown mustard, lentils, safflower, flax, sunflower, peanut, vetch, alfalfa, field bean, pea, violet (Viola spp), Kochia (Kochia spp), Russian thistle (Salsola spp), Matricaria spp, groundsel (Senecio spp), shepherdspurse (Capsella bursa-pastoris), nightshade (Solanum spp), sowthistle (Sonchus spp), sugar beet, wheat, "Bonanza" barley and "Morex" barley, Kentucky bluegrass (Poa pratensis), red clover (Trifolium pratense), dandelion (Taraxacum spp) and buckhorn plantain (Plantago lanceolata).
(§4) Plants were treated postemergence with the compound formulated with a non-phytotoxic carrier. Plants were visually rated 18 days after treatment (DAT). Response ratings were based on the scale of 0 to 100 where 0 = no effect, 20 = minimal injury and 100 = complete control.

[6] = test system: Setaria viridis; test: Test 1 greenhouse, postemergence; assay type: in vivo; conditions: 21 days, scale 0-100
Description: (§5) Seeds of Bromus tectorum, Kochia scoparia, Salsoa kali, Avena fatua, Convolvulus arvensis, Secale cereale, Setaria viridis and Triticum aestivum were placed in 26-cm plastic pans containing a pasteurized sandy loam soil (pH 6.5, 1% organic matter). Plantings were maintained in the greenhouse for 18-28 days at which time the postemergence treatments were applied using a nonphytotoxic solvent as the carrier for the herbicide. The preemergence segment of the test was seeded immediately before herbicide application using Bromus tectorum, Kochia scoparia, Polygonum convolvulus, Salsoa kali, Avena fatua, Convolvulus arvensis, Secale cereale, Setaria viridis, Aegilops cylindrica, Amaranthus retroflexus, Chenopodium album, Hordeum vulgare, Triticum aestivum, Sorghum bicolor, and Zea mays. All treatments were maintained in the greenhouse for an additional 21 days at which time visual assessment of weed control was determined using a scale of 0 to 100 for each species where 0 represented no control and 100 represented complete control.

[7] = test system: Convolvulus arvensis; test: Test 1 greenhouse, postemergence; assay type: in vivo; conditions: 21 days, scale 0-100
Description: as §5

[8] = test system: Secale cereale; test: Test 1 greenhouse, postemergence; assay type: in vivo; conditions: 21 days, scale 0-100
Description: as §5

[9] = test system: Avena fatua; test: Test 1 greenhouse, postemergence; assay type: in vivo; conditions: 21 days, scale 0-100
Description: as §5

[10] = test system: Bromus tectorum; test: Test 1 greenhouse, postemergence; assay type: in vivo; conditions: 21 days, scale 0-100
Description: as §5

[11] = test system: Triticum aestivum; test: Test 1 greenhouse, postemergence; assay type: in vivo; conditions: 21 days, scale 0-100
Description: as §5

[12] = test system: Salsoa kali; test: Test 1 greenhouse, postemergence; assay type: in vivo; conditions: 21 days, scale 0-100
Description: as §5

[13] = test system: Viola; test: Test 7 postemergence; assay type: in vivo, Viola spp; conditions: scale 0-100
Description: as §3, §4

[14] = test system: Flax; test: Test 10 postemergence safety to crops and weed control; assay type: in vivo; conditions: 16 g/ha, scale 0-100
Description: The object of these tests was to evaluate the compound of this invention for postemergence safety to crops and weed control. Seedling and budded Macedine grapes were grown in 11.4-cm pots. Flax, green foxtail (Setaria viridis), "Morex" barley, wild oats (Avena fatua), "Era" wheat, annual ryegrass (Lolium multiflorum), wild radish (Raphanus raphanistrum), rape, sunflower, chickweed (Stellaria media) and wild buckwheat (Polygonum convolvulus) were seeded in windowsill pots.
The plants were sprayed postemergence with Compound I in a non-phytotoxic solvent. Plants were visually rated 15 and 27 days after treatment (DAT). Injury and weed control ratings were based on the scale of 0 to 100 where 0 = no effect, 20 minimal control and 100 = complete control.

For `COC(=O)c1cccnc1S(=O)(=O)NC(=O)Nc1nc(OC)cc(OC)n1` [Compound I, 2-[[(4,6-dimethoxypyrimidin-2-yl)aminocarbonyl]aminosulfonyl]-3-pyridinecarboxylic acid, methyl ester], the Injury ratings [1] was 100, the “Plant Injury Rating 22 DAT” value [2] was 90 and the Injury ratings [3] was 100. The Injury ratings [4] was 100, the “Plant Injury Rating 18 DAT” value ([5]; 16 g/ha) was 100 and the “Plant Injury Rating 18 DAT” value ([5]; 32 g/ha) was 100. For the same molecule, the “visual assessment of weed control” value ([6]; 4 g/ha) was 90, the “visual assessment of weed control” value ([6]; 8 g/ha) was 90 and the “visual assessment of weed control” value ([6]; 16 g/ha) was 100. For the same molecule, the “visual assessment of weed control” value ([6]; 32 g/ha) was 100, the “visual assessment of weed control” value ([6]; 64 g/ha) was 100 and the “visual assessment of weed control” value ([6]; 125 g/ha) was 100. The “visual assessment of weed control” value ([7]; 4 g/ha) was 90, the “visual assessment of weed control” value ([7]; 8 g/ha) was 100 and the “visual assessment of weed control” value ([7]; 16 g/ha) was 100. The “visual assessment of weed control” value ([7]; 32 g/ha) was 100, the “visual assessment of weed control” value ([7]; 64 g/ha) was 100 and the “visual assessment of weed control” value ([7]; 125 g/ha) was 100. The “visual assessment of weed control” value ([8]; 4 g/ha) was 70, the “visual assessment of weed control” value ([8]; 8 g/ha) was 100 and the “visual assessment of weed control” value ([8]; 16 g/ha) was 100. The “visual assessment of weed control” value ([8]; 32 g/ha) was 100, the “visual assessment of weed control” value ([8]; 64 g/ha) was 100 and the “visual assessment of weed control” value ([8]; 125 g/ha) was 100. The “visual assessment of weed control” value ([9]; 4 g/ha) was 80, the “visual assessment of weed control” value ([9]; 8 g/ha) was 80 and the “visual assessment of weed control” value ([9]; 16 g/ha) was 100. The “visual assessment of weed control” value ([9]; 32 g/ha) was 100, the “visual assessment of weed control” value ([9]; 64 g/ha) was 100 and the “visual assessment of weed control” value ([9]; 125 g/ha) was 100. For the same molecule, the “visual assessment of weed control” value ([10]; 4 g/ha) was 100, the “visual assessment of weed control” value ([10]; 8 g/ha) was 100 and the “visual assessment of weed control” value ([10]; 16 g/ha) was 100. For the same molecule, the “visual assessment of weed control” value ([10]; 32 g/ha) was 100, the “visual assessment of weed control” value ([10]; 64 g/ha) was 100 and the “visual assessment of weed control” value ([10]; 125 g/ha) was 100. The “visual assessment of weed control” value ([11]; 4 g/ha) was 90, the “visual assessment of weed control” value ([11]; 8 g/ha) was 100 and the “visual assessment of weed control” value ([11]; 16 g/ha) was 100. For the same molecule, the “visual assessment of weed control” value ([11]; 32 g/ha) was 100, the “visual assessment of weed control” value ([11]; 64 g/ha) was 100 and the “visual assessment of weed control” value ([11]; 125 g/ha) was 100. For the same molecule, the “visual assessment of weed control” value ([12]; 4 g/ha) was 100, the “visual assessment of weed control” value ([12]; 8 g/ha) was 100 and the “visual assessment of weed control” value ([12]; 16 g/ha) was 100. For the same molecule, the “visual assessment of weed control” value ([12]; 32 g/ha) was 100, the “visual assessment of weed control” value ([12]; 64 g/ha) was 100 and the “visual assessment of weed control” value ([12]; 125 g/ha) was 100. For the same molecule, the “Plant Injury Rating 18 DAT” value ([13]; 16 g/ha) was 100, the “Plant Injury Rating 18 DAT” value ([13]; 32 g/ha) was 100 and the “Plant Injury Rating 15 DAT” value [14] was 100.

From EP0314302A2, “Herbicidal o-carbomethoxy-sulfonylureas” (E.I. DU PONT DE NEMOURS AND COMPANY, priority 1987, dated 1989)
